Test system: monocistronic NK5.1 HCV replicon in Huh7 cells
Assay: HCV replicon assay, monocistronic replicon cell line
Type: cell-based, hepatitis C virus
Details: Hepatitis C virus, Huh-7; monocistronic NK5.1 HCV replicon in Huh7 cells; median value; read-out: Mono EC50 Median
Method in brief: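 EC50 derives from the HCV RNA/GAPDH RNA ratio by one-step TaqMan RT-PCR, relative to DMSO-only wells. Compounds (six half-log concentrations, 0.6% DMSO) were incubated 3 days at 37 °C with NK5.1 monocistronic replicon Huh7 cells plated a day earlier.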

**Q.** How did the EC50 turn out when `COc1ccc(-c2nc(-c3ccc(NC(C)=O)cn3)no2)c(O)c1` [Compound 261, N-{6-[5-(2-Hydroxy-4-methoxy-phenyl)-[1,2,4]oxadiazol-3-yl]-pyridin-3-yl}-acetamide] was run?
**A.** The EC50 was 45.3 µM.

**Q.** `COc1ccc(O)c(-c2nc(-c3ccc(NC(C)=O)cn3)no2)c1` [Compound 262, N-{6-[5-(2-Hydroxy-5-methoxy-phenyl)-[1,2,4]oxadiazol-3-yl]-pyridin-3-yl}-acetamide] was tested. Which EC50 did it give?
**A.** Its EC50 is 19.2 µM.

**Q.** `CC(=O)Nc1ccc(-c2noc(-c3cc(Br)ccc3O)n2)nc1` [Compound 263, N-{6-[5-(5-Bromo-2-hydroxy-phenyl)-[1,2,4]oxadiazol-3-yl]-pyridin-3-yl}-acetamide] was tested. Which EC50 did it give?
**A.** Its EC50 is greater than 19 µM.

**Q.** With `CC(=O)Nc1ccc(-c2noc(-c3cc(C)ccc3O)n2)nc1` [Compound 264, N-{6-[5-(2-Hydroxy-5-methyl-phenyl)-[1,2,4]oxadiazol-3-yl]-pyridin-3-yl}-acetamide] as the compound, how does the EC50 read?
**A.** The EC50 was greater than 19 µM.

**Q.** For `COc1ccc(-c2nc(-c3ccc(C(F)(F)F)cn3)no2)c(O)c1OC` [Compound 265, 2,3-Dimethoxy-6-[3-(5-trifluoromethyl-pyridin-2-yl)-[1,2,4]oxadiazol-5-yl]-phenol], which EC50 is on record?
**A.** Its EC50 is 28.5 µM.

**Q.** How did the EC50 turn out when `Cc1cccnc1-c1noc(-c2cc(O)ccc2OCc2ccccc2)n1` [Compound 267, 4-Benzyloxy-3-[3-(3-methyl-pyridin-2-yl)-[1,2,4]oxadiazol-5-yl]-phenol] was run?
**A.** The EC50 was 15.9 µM.

**Q.** With `CCOc1cccc(-c2nc(-c3ncccc3C)no2)c1O` [Compound 268, 2-Ethoxy-6-[3-(3-methyl-pyridin-2-yl)-[1,2,4]oxadiazol-5-yl]-phenol] as the compound, how does the EC50 read?
**A.** Its EC50 is 28.7 µM.

**Q.** Which EC50 does the source give for `CCOc1cccc(-c2nc(-c3ccc(C(F)(F)F)cn3)no2)c1O` [Compound 269, 2-Ethoxy-6-[3-(5-trifluoromethyl-pyridin-2-yl)-[1,2,4]oxadiazol-5-yl]-phenol] here?
**A.** Its EC50 is 35.9 µM.

**Q.** With `Cc1cccnc1-c1noc(-c2cc(N)ccc2O)n1` [Compound 270, 4-Amino-2-[3-(3-methyl-pyridin-2-yl)-[1,2,4]oxadiazol-5-yl]-phenol] as the compound, how does the EC50 read?
**A.** Its EC50 is 27.7 µM.

**Q.** For `CCOc1ccc(O)c(-c2nc(-c3ncccc3C)no2)c1` [Compound 271, 4-Ethoxy-2-[3-(3-methyl-pyridin-2-yl)-[1,2,4]oxadiazol-5-yl]-phenol], which EC50 is on record?
**A.** The EC50 was 0.61 µM.

**Q.** How did the EC50 turn out when `CCCOc1ccc(O)c(-c2nc(-c3ncccc3C)no2)c1` [Compound 272, 2-[3-(3-Methyl-pyridin-2-yl)-[1,2,4]oxadiazol-5-yl]-4-propoxy-phenol] was run?
**A.** Its EC50 is greater than 32 µM.

**Q.** For `Cc1cccnc1-c1noc(-c2cc(OCCc3ccccc3)ccc2O)n1` [Compound 273, 2-[3-(3-Methyl-pyridin-2-yl)-[1,2,4]oxadiazol-5-yl]-4-phenethyloxy-phenol], which EC50 is on record?
**A.** The EC50 was greater than 19 µM.

**Q.** Which EC50 does the source give for `Cc1cccnc1-c1noc(-c2ccc(OCc3ccccc3)cc2O)n1` [Compound 274, 5-Benzyloxy-2-[3-(3-methyl-pyridin-2-yl)-[1,2,4]oxadiazol-5-yl]-phenol] here?
**A.** The EC50 was 1.8 µM.

**Q.** With `CC(=O)Nc1ccc(O)c(-c2nc(-c3ncccc3C)no2)c1` [Compound 275, N-{4-Hydroxy-3-[3-(3-methyl-pyridin-2-yl)-[1,2,4]oxadiazol-5-yl]-phenyl}-acetamide] as the compound, how does the EC50 read?
**A.** The EC50 was 18 µM.

**Q.** `Cc1cccnc1-c1noc(-c2ccc(NC(=O)OC(C)(C)C)cc2O)n1` [Compound 276, {3-Hydroxy-4-[3-(3-methyl-pyridin-2-yl)-[1,2,4]oxadiazol-5-yl]-phenyl}-carbamic acid tert-butyl ester] was tested. Which EC50 did it give?
**A.** The EC50 was 0.7 µM.

**Q.** With `Cc1cccnc1-c1noc(-c2ccc(N)cc2O)n1` [Compound 277, 5-Amino-2-[3-(3-methyl-pyridin-2-yl)-[1,2,4]oxadiazol-5-yl]-phenol] as the compound, how does the EC50 read?
**A.** Its EC50 is 6 µM.

**Q.** For `Cc1cccnc1-c1noc(-c2cc(Cl)cc(Cl)c2O)n1` [Compound 278, 2,4-Dichloro-6-[3-(3-methyl-pyridin-2-yl)-[1,2,4]oxadiazol-5-yl]-phenol], which EC50 is on record?
**A.** The EC50 was 3.8 µM.

**Q.** How did the EC50 turn out when `Cc1cccnc1-c1noc(-c2cc(Cl)cc(Br)c2O)n1` [Compound 279, 2-Bromo-4-chloro-6-[3-(3-methyl-pyridin-2-yl)-[1,2,4]oxadiazol-5-yl]-phenol] was run?
**A.** Its EC50 is 3.3 µM.

**Q.** With `Cc1cccnc1-c1noc(-c2cc(Br)cc(Br)c2O)n1` [Compound 280, 2,4-Dibromo-6-[3-(3-methyl-pyridin-2-yl)-[1,2,4]oxadiazol-5-yl]-phenol] as the compound, how does the EC50 read?
**A.** Its EC50 is 7.4 µM.

**Q.** For `Oc1c(Cl)cc(Cl)cc1-c1nc(-c2ccccn2)no1` [Compound 281], which EC50 is on record?
**A.** The EC50 was 2.1 µM.

**Q.** With `COc1ccc(-c2nc(-c3ncccc3C)no2)c(O)c1OC` [Compound 282, 2,3-Dimethoxy-6-[3-(3-methyl-pyridin-2-yl)-[1,2,4]oxadiazol-5-yl]-phenol] as the compound, how does the EC50 read?
**A.** Its EC50 is 1.3 µM.

**Q.** How did the EC50 turn out when `COc1ccc(O)c(-c2nc(-c3ccoc3)no2)c1` [Compound 283, 2-(3-Furan-3-yl-[1,2,4]oxadiazol-5-yl)-4-methoxy-phenol] was run?
**A.** Its EC50 is 15 µM.

**Q.** How did the EC50 turn out when `Cc1ccc(O)c(-c2nc(-c3ccoc3)no2)c1` [Compound 284, 2-(3-Furan-3-yl-[1,2,4]oxadiazol-5-yl)-4-methyl-phenol] was run?
**A.** Its EC50 is 17 µM.

**Q.** `Oc1ccc2ccccc2c1-c1nc(-c2ccoc2)no1` [Compound 285] was tested. Which EC50 did it give?
**A.** Its EC50 is 11 µM.

**Q.** `COc1ccc(-c2nc(-c3ccoc3)no2)c(O)c1` [Compound 286, 2-(3-Furan-3-yl-[1,2,4]oxadiazol-5-yl)-5-methoxy-phenol] was tested. Which EC50 did it give?
**A.** Its EC50 is 9.7 µM.

**Q.** `Oc1ccc(OC(F)(F)F)cc1-c1nc(-c2ccc(C(F)(F)F)cn2)no1` [Compound 287, 4-Trifluoromethoxy-2-[3-(5-trifluoromethyl-pyridin-2-yl)-[1,2,4]oxadiazol-5-yl]-phenol] was tested. Which EC50 did it give?
**A.** The EC50 was 1.7 µM.

**Q.** `Cc1cccnc1-c1noc(-c2ccc(NCc3ccccc3)cc2O)n1` [Compound 288, 5-Benzylamino-2-[3-(3-methyl-pyridin-2-yl)-[1,2,4]oxadiazol-5-yl]-phenol] was tested. Which EC50 did it give?
**A.** The EC50 was 0.8 µM.

**Q.** `Cc1cccnc1-c1noc(-c2ccc(NC(=O)c3ccccc3)cc2O)n1` [Compound 289] was tested. Which EC50 did it give?
**A.** The EC50 was 6.1 µM.

**Q.** With `Cc1cccnc1-c1noc(-c2cc(NC(=O)c3ccccc3)ccc2O)n1` [Compound 290, N-{4-Hydroxy-3-[3-(3-methyl-pyridin-2-yl)-[1,2,4]oxadiazol-5-yl]-phenyl}-benzamide] as the compound, how does the EC50 read?
**A.** Its EC50 is 2.8 µM.

**Q.** Which EC50 does the source give for `CC(=O)Nc1ccc(-c2nc(-c3ncccc3C)no2)c(O)c1` [Compound 291] here?
**A.** The EC50 was 6 µM.

**Q.** With `Oc1ccc(Br)cc1-c1nc(-c2ncccc2C(F)(F)F)no1` [Compound 292, 4-Bromo-2-[3-(3-trifluoromethyl-pyridin-2-yl)-[1,2,4]oxadiazol-5-yl]-phenol] as the compound, how does the EC50 read?
**A.** Its EC50 is 1.5 µM.

**Q.** With `Cc1cccnc1-c1noc(-c2cccc(C)c2O)n1` [Compound 293, 2-Methyl-6-[3-(3-methyl-pyridin-2-yl)-[1,2,4]oxadiazol-5-yl]-phenol] as the compound, how does the EC50 read?
**A.** The EC50 was 1.7 µM.

**Q.** `CSc1ccc(O)c(-c2nc(-c3ncccc3C)no2)c1` [Compound 294, 2-[3-(3-Methyl-pyridin-2-yl)-[1,2,4]oxadiazol-5-yl]-4-methylsulfanyl-phenol] was tested. Which EC50 did it give?
**A.** Its EC50 is 0.2 µM.

**Q.** How did the EC50 turn out when `Cc1ccc(-c2nc(-c3ncccc3C)no2)c(O)c1` [Compound 295] was run?
**A.** The EC50 was 2.1 µM.

**Q.** For `Cc1cccnc1-c1noc(-c2cc(C3OCC(C)(C)CO3)ccc2O)n1` [Compound 297, 4-(5,5-Dimethyl-[1,3]dioxan-2-yl)-2-[3-(3-methyl-pyridin-2-yl)-[1,2,4]oxadiazol-5-yl]-phenol], which EC50 is on record?
**A.** The EC50 was 0.43 µM.

**Q.** `Cc1cccnc1-c1noc(-c2cccc(NC(=O)OC(C)(C)C)c2O)n1` [Compound 298] was tested. Which EC50 did it give?
**A.** The EC50 was 0.62 µM.

**Q.** `COc1ccc(O)c(-c2noc(-c3ccoc3)n2)c1` [Compound 299, 2-(5-Furan-3-yl-[1,2,4]oxadiazol-3-yl)-4-methoxy-phenol] was tested. Which EC50 did it give?
**A.** Its EC50 is 21.7 µM.

**Q.** `Cc1cccnc1-c1noc(-c2cccc(C(C)C)c2O)n1` [Compound 300, 2-Isopropyl-6-[3-(3-methyl-pyridin-2-yl)-[1,2,4]oxadiazol-5-yl]-phenol] was tested. Which EC50 did it give?
**A.** Its EC50 is 1.5 µM.

**Q.** How did the EC50 turn out when `COc1ccc(O)c(-c2noc(-c3ncccc3C)n2)c1` [Compound 301, 4-Methoxy-2-[5-(3-methyl-pyridin-2-yl)-[1,2,4]oxadiazol-3-yl]-phenol] was run?
**A.** The EC50 was greater than 32 µM.

**Q.** Which EC50 does the source give for `COc1ccc(O)c(-c2noc(-c3ccco3)n2)c1` [Compound 302, 2-(5-Furan-2-yl-[1,2,4]oxadiazol-3-yl)-4-methoxy-phenol] here?
**A.** Its EC50 is 16 µM.

**Q.** For `Cc1ccccc1-c1nnc(-c2ccco2)o1` [Compound 303, 2-Furan-2-yl-5-o-tolyl-[1,3,4]oxadiazole], which EC50 is on record?
**A.** The EC50 was greater than 32 µM.

**Q.** Which EC50 does the source give for `Oc1ccc2ccccc2c1-c1nnc(-c2ccccc2)o1` [Compound 304, 1-(5-Phenyl-[1,3,4]oxadiazol-2-yl)-naphthalen-2-ol] here?
**A.** The EC50 was greater than 32 µM.

**Q.** Which EC50 does the source give for `Oc1ccc2ccccc2c1-c1nnc(-c2ccccc2F)o1` [Compound 305, 1-[5-(2-Fluoro-phenyl)-[1,3,4]oxadiazol-2-yl]-naphthalen-2-ol] here?
**A.** Its EC50 is greater than 32 µM.

**Q.** Which EC50 does the source give for `Oc1ccc2ccccc2c1-c1nnc(-c2ccccc2C(F)(F)F)o1` [Compound 306, 1-[5-(2-Trifluoromethyl-phenyl)-[1,3,4]oxadiazol-2-yl]-naphthalen-2-ol] here?
**A.** The EC50 was 26 µM.

**Q.** With `Oc1ccc2ccccc2c1-c1nnc(-c2ccco2)o1` [Compound 307, 1-(5-Furan-2-yl-[1,3,4]oxadiazol-2-yl)-naphthalen-2-ol] as the compound, how does the EC50 read?
**A.** The EC50 was greater than 32 µM.

**Q.** Which EC50 does the source give for `Oc1ccc2ccccc2c1-c1nnc(-c2cccs2)o1` [Compound 308, 1-(5-Thiophen-2-yl-[1,3,4]oxadiazol-2-yl)-naphthalen-2-ol] here?
**A.** The EC50 was 26 µM.

**Q.** For `Oc1ccc2ccccc2c1-c1nnc(-c2ncc(C(F)(F)F)cc2Cl)o1` [Compound 309, 1-[5-(3-Chloro-5-trifluoromethyl-pyridin-2-yl)-[1,3,4]oxadiazol-2-yl]-naphthalen-2-ol], which EC50 is on record?
**A.** Its EC50 is 16 µM.

**Q.** Which EC50 does the source give for `Oc1ccc2ccccc2c1-c1nnc(-c2c(Cl)cccc2Cl)o1` [Compound 310, 1-[5-(2,6-Dichloro-phenyl)-[1,3,4]oxadiazol-2-yl]-naphthalen-2-ol] here?
**A.** The EC50 was 4.4 µM.

**Q.** `O=[N+]([O-])c1ccccc1-c1nnc(-c2c(O)ccc3ccccc23)o1` [Compound 311, 1-[5-(2-Nitro-phenyl)-[1,3,4]oxadiazol-2-yl]-naphthalen-2-ol] was tested. Which EC50 did it give?
**A.** Its EC50 is 4 µM.

**Q.** `Cc1ccccc1-c1nnc(-c2ccccc2)o1` [Compound 312, 2-Phenyl-5-o-tolyl-[1,3,4]oxadiazole] was tested. Which EC50 did it give?
**A.** The EC50 was greater than 32 µM.
